This is an account of results in article PMC6604316 (Virology Journal, 2019).

Like-named read-outs stand apart in the source and are kept apart here.

Assay [1] deals with NA protein of LPAI H7N9 virus, 292 K. The conditions noted are these: cited from earlier work.
Assay [2] addresses NA of A/Texas/12/2007 (H3N2 119E) (Influenza A virus (A/Texas/12/2007(H3N2)), UniProt D1FVK3). Kind of assay: biochemical. It counts as biochemical.

As usually defined, the IC50 is the point on the concentration scale where inhibition reaches its midpoint.

For the compound oseltamivir carboxylate, the “fold increase in the IC50” value in assay [1] is recorded as “more than 1000 fold”. The IC50 in assay [2] (read-out: Mean IC50 (nM) ± SD) was 0.12 ± 0.01 nM.
Turning to `CC(=O)N[C@H]1[C@H]([C@H](O)[C@H](O)CO)OC(C(=O)O)=C[C@@H]1N=C(N)N` [Zanamivir, zanamivir], the “fold increase in the IC50” value in assay [1] is recorded as 67 fold. This compound also had an IC50 in assay [2] of 1.71 ± 0.63 nM.
